Source: patent publication US8912176B2 (Evotec AG, priority 2009, dated 2014)

These compounds were tested against human H3 receptor (Homo sapiens, UniProt Q9Y5N1) (assay: cAMP quantification assay for human H3 receptor (DiscoveRx cAMP XS+)).
human H3 receptor, sequence (Q9Y5N1 whole entry): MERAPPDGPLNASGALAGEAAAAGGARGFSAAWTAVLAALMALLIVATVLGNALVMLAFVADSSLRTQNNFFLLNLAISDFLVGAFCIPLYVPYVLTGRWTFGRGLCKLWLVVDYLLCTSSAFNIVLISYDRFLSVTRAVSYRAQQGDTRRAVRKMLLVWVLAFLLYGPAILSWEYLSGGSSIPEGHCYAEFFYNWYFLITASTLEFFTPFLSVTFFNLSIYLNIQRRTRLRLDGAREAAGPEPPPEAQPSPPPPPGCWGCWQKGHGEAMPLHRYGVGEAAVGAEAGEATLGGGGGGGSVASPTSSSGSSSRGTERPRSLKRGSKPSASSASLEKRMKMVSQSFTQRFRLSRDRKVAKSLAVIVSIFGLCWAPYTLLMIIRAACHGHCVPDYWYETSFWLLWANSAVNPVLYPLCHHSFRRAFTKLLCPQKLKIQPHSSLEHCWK

| Compound | IC50 |
| --- | --- |
| O=C(c1ccc(-n2ccnc2)cc1)N1CC(C(=O)N2CCCN(C3CCC3)CC2)C1 [Example 72, 1-cyclobutyl-4-[(1-{[4-(1H-imidazol-1-yl)phenyl]carbonyl}azetidin-3-yl)carbonyl]-1,4-diazepane] | < 50 nM |
| O=C(c1ccc(-n2cccn2)nc1)N1CC(C(=O)N2CCCN(C3CCC3)CC2)C1 [Example 14, 1-cyclobutyl-4-[(1-{[6-(1H-pyrazol-1-yl)pyridin-3-yl]carbonyl}azetidin-3-yl)carbonyl]-1,4-diazepane] | < 50 nM |
| O=C(c1ccc(-c2ccncc2)cc1)N1CC(C(=O)N2CCCN(C3CCC3)CC2)C1 [Example 45, 1-cyclobutyl-4-({1-[(4-pyridin-4-ylphenyl)carbonyl]azetidin-3-yl}carbonyl)-1,4-diazepane] | < 50 nM |
| Cc1ccc(C(=O)N2CC(C(=O)N3CCCN(C(C)C)CC3)C2)cn1 [Example 79, 1-(1-methylethyl)-4-({1-[(6-methylpyridin-3-yl)carbonyl]azetidin-3-yl}carbonyl)-1,4-diazepane] | 100 to 5000 nM |

Results, then the compound that gave them:

| IC50 | Compound |
| --- | --- |
| < 50 nM | CS(=O)(=O)c1ccc(C(=O)N2CC(C(=O)N3CCCN(C4CCC4)CC3)C2)cc1 [Example 55, 1-cyclobutyl-4-[(1-{[4-(methylsulfonyl)phenyl]carbonyl}azetidin-3-yl)carbonyl]-1,4-diazepane] |
| < 50 nM | O=C(c1ccc(OC2CCOCC2)cc1)N1CC(C(=O)N2CCCN(C3CCC3)CC2)C1 [Example 11, 1-cyclobutyl-4-[(1-{[4-(tetrahydro-2H-pyran-4-yloxy)phenyl]carbonyl}azetidin-3-yl)carbonyl]-1,4-diazepane] |
| < 50 nM | CN(CC1CCCCC1)C(=O)N1CC(C(=O)N2CCCN(C3CCC3)CC2)C1 [Example 60, 3-[(4-cyclobutyl-1,4-diazepan-1-yl)carbonyl]-N-(cyclohexylmethyl)-N-methylazetidine-1-carboxamide] |
| < 50 nM | O=C(c1ccc(-c2cccnc2)cc1)N1CC(C(=O)N2CCCN(C3CCC3)CC2)C1 [Example 44, 1-cyclobutyl-4-({1-[(4-pyridin-3-ylphenyl)carbonyl]azetidin-3-yl}carbonyl)-1,4-diazepane] |
| < 50 nM | CN(CC1CCOCC1)C(=O)N1CC(C(=O)N2CCCN(C3CCC3)CC2)C1 [Example 61, 3-[(4-cyclobutyl-1,4-diazepan-1-yl)carbonyl]-N-methyl-N-(tetrahydro-2H-pyran-4-ylmethyl)azetidine-1-carboxamide] |
| < 50 nM | Cc1ncc(C(=O)N2CC(C(=O)N3CCCN(C4CCC4)CC3)C2)cn1 [Example 8, 1-cyclobutyl-4-({1-[(2-methylpyrimidin-5-yl)carbonyl]azetidin-3-yl}carbonyl)-1,4-diazepane] |
